In ChEMBL document CHEMBL1201862, “PubChem BioAssay data set” (2004):
The source made the active and inactive calls.

Legend:
[1] = target: Cystic fibrosis transmembrane conductance regulator/Golgi-associated PDZ and coiled-coil motif-containing protein (Homo sapiens, UniProt P13569+Q9HD26); assay: potency against CAL PDZ-peptide interaction – biochemical, fluorescence polarization, Cerulean-tagged CAL PDZ, cherry-picks, dose response (AID 504773)
[2] = target: T1, Cytochrome P450 2C9 (Homo sapiens, UniProt P11712); conditions: Potency
[3] = target: T2, Cytochrome P450 1A2 (Homo sapiens, UniProt P05177);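 note: PubChem cytochrome P450 panel assay, CYP1A2 panel member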
T2 sequence (P05177 whole entry): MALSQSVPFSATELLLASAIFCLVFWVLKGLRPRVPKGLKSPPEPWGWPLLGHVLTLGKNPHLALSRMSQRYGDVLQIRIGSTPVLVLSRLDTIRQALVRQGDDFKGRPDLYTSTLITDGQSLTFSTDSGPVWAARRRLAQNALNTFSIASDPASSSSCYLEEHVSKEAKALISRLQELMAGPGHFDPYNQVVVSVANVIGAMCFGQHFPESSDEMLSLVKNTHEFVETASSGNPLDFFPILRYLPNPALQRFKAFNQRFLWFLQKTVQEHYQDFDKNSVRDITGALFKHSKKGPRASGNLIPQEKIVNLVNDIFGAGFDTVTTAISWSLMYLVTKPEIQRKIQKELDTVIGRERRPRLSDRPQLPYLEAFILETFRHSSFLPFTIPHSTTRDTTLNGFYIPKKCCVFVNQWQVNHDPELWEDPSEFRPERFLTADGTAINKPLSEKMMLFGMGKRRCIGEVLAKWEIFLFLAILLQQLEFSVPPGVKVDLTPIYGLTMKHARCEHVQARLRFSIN

[4] = target: T1, Cytochrome P450 2C9
[5] = target: Neurotensin receptor type 1 (Homo sapiens, UniProt P30989); format: functional;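 note: Image-based confirmatory dose-response assay measuring agonist activity at NTR1; NTR1-expressing U2OS osteosarcoma cells imaged for beta-arrestin GFP spot formation; agonist potency where compounds increase beta-arrestin recruitment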
[6] = target: T3, Replicative DNA helicase DnaB (Mycobacterium tuberculosis, UniProt P9WMR3); assay: DnaB intein splicing inhibitors, dose response, biochemical, cell-free fluorescence (AID 449749); format: functional
T3 sequence (P9WMR3 whole entry): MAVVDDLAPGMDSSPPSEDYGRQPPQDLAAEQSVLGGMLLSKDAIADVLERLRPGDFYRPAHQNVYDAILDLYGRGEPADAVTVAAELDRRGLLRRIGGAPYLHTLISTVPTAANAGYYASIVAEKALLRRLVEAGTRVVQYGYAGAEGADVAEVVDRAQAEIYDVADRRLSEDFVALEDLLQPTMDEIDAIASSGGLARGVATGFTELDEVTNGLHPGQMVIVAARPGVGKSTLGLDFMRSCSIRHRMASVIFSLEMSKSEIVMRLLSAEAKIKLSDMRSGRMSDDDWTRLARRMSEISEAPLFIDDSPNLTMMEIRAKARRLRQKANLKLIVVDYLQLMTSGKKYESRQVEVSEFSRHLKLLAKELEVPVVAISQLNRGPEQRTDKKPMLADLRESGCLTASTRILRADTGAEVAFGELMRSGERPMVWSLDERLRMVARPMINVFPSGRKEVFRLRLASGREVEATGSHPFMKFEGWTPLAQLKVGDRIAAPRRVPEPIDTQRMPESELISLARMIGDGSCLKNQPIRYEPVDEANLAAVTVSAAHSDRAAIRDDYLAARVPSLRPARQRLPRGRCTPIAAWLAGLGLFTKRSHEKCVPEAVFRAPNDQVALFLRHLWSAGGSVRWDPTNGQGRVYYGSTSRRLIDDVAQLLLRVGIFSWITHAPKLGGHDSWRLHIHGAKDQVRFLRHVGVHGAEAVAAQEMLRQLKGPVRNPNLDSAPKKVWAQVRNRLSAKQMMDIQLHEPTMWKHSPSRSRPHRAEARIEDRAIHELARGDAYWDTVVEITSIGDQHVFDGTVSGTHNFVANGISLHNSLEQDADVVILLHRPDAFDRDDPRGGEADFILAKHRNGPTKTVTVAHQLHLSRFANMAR

[7] = target: T4, Protein RecA (Mycobacterium tuberculosis, UniProt P9WHJ3); assay: Fluorescence Cell-Free Homogeneous Dose Retest to Identify Inhibitors of RecA-Intein Splicing Activity. [Related pubchem assays (depositor defined):AID2097, AID2223, AID489010, AID492950]; format: functional
T4 sequence (P9WHJ3 whole entry): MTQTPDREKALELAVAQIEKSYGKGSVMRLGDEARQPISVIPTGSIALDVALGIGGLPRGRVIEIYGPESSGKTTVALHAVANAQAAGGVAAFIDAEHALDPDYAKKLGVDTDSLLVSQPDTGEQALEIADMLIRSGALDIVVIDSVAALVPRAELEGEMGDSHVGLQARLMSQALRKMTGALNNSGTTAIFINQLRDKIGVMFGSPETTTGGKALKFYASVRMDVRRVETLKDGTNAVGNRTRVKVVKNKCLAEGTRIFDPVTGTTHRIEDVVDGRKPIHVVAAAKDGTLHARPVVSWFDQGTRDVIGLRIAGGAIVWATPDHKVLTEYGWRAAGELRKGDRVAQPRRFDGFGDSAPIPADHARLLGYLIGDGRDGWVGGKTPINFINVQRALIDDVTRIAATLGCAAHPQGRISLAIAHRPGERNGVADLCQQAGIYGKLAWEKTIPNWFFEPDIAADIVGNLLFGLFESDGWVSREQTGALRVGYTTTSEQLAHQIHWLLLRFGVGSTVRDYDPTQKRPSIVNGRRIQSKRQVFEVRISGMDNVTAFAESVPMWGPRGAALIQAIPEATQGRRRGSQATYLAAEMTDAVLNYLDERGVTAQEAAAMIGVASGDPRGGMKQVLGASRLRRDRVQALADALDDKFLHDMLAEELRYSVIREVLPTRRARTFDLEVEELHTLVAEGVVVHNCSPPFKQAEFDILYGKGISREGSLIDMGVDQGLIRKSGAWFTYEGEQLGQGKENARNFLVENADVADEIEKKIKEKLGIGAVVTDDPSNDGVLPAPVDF

[8] = target: T5, Neuropeptides B/W receptor type 1 (Homo sapiens, UniProt P48145); assay: Fluorescence-based dose response cell-based high throughput screening assay to identify antagonists of the G-protein coupled receptor 7 (GPR7). [Related pubchem assays: 1952 (Screening assay (GPR7 antagonists).), 1880 (Summary AID.)]; format: functional
T5 sequence (P48145 whole entry): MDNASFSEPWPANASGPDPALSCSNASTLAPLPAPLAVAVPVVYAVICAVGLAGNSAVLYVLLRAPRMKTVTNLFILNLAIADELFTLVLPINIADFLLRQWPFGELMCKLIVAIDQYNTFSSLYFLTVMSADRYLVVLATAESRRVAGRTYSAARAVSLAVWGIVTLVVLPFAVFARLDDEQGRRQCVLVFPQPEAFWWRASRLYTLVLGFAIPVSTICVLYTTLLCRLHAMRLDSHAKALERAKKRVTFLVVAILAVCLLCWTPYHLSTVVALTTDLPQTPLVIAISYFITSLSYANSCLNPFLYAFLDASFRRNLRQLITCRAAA

[9] = target: Melanin-concentrating hormone receptor 1 (Homo sapiens, UniProt Q99705); assay: Fluorescence-based counterscreen for antagonists of the G-protein coupled receptor 7 (GPR7): cell-based high throughput dose response assay to identify antagonists of the melanin-concentrating hormone receptor 1 (MCHR1).; format: functional
[10] = target: Voltage-dependent T-type calcium channel subunit alpha-1H (Homo sapiens, UniProt O95180); format: functional;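 note: channel activity triggered by adding a high calcium stimulation buffer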
[11] = test system: Vero; assay: host cell viability loss, Vero E6 – synthesized analogs, cytotoxicity control for West Nile virus antiviral project, SAR follow-up (AID 2244); format: functional; conditions: Chlorocebus sabaeus
[12] = target: X-box-binding protein 1 (Homo sapiens, UniProt P17861); format: functional, Cricetulus griseus;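 note: confirmatory dose-response counter-screen serving a CHOP assay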
[13] = target: T6, Tyrosine-protein phosphatase non-receptor type 7 (Homo sapiens, UniProt P35236); format: functional
T6 sequence (P35236 whole entry): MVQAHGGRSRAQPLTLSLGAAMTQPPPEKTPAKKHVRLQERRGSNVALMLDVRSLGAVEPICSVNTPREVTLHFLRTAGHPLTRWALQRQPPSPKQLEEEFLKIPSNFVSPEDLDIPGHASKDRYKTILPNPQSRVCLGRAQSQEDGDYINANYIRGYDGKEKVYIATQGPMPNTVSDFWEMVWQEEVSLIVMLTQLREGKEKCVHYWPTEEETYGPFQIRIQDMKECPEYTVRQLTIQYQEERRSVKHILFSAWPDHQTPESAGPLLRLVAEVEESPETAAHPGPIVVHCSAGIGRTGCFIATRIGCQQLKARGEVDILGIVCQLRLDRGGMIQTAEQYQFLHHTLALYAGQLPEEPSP

[14] = target: Glyceraldehyde-3-phosphate dehydrogenase (Homo sapiens, UniProt P04406)
[15] = target: Heat shock cognate 71 kDa protein (Homo sapiens, UniProt P11142); assay: In Vitro Hsc70 Dose Response Fluorescence Polarization Assay. [Related pubchem assays: 1072 ]
[16] = target: Heat shock 70 kDa protein 1A (Homo sapiens, UniProt P0DMV8); assay: inhibition of Hsp70 binding activity – biochemical, fluorescence polarization, SAR follow-up (AID 1072)
[17] = target: T7, Dual specificity protein phosphatase 6 (Rattus norvegicus, UniProt Q64346)
T7 sequence (Q64346 whole entry): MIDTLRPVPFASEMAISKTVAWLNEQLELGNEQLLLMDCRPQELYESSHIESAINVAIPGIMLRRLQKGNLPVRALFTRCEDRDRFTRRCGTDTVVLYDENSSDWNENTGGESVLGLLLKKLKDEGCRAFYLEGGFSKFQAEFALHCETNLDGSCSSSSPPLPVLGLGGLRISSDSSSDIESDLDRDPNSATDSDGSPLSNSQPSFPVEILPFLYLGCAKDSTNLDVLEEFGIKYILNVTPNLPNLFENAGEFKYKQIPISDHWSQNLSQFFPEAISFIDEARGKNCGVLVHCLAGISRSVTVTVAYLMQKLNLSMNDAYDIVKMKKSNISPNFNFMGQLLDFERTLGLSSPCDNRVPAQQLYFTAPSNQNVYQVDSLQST

[18] = target: T7, Dual specificity protein phosphatase 6; format: functional
[19] = target: C-C chemokine receptor type 6 (Homo sapiens, UniProt P51684); assay: antagonism of CCR6 beta-arrestin recruitment – cell-based, luminescent beta-arrestin readout, dose response (AID 504728); format: functional
[20] = target: Beta-galactosidase (Escherichia coli, UniProt Q8VNN2); assay: detection-enzyme interference by beta-gal modulators – biochemical, E. coli enzyme, set 3, artefact control for CCR6 antagonist project, dose response (AID 504712); format: functional
[21] = viability loss in THP-1 monocytes – THP-1 cells, cytotoxicity control for Vif-APOBEC3G degradation inhibitor project, dose response (AID 1117359); format: functional; conditions: THP-1

T1 sequence (P11712 whole entry): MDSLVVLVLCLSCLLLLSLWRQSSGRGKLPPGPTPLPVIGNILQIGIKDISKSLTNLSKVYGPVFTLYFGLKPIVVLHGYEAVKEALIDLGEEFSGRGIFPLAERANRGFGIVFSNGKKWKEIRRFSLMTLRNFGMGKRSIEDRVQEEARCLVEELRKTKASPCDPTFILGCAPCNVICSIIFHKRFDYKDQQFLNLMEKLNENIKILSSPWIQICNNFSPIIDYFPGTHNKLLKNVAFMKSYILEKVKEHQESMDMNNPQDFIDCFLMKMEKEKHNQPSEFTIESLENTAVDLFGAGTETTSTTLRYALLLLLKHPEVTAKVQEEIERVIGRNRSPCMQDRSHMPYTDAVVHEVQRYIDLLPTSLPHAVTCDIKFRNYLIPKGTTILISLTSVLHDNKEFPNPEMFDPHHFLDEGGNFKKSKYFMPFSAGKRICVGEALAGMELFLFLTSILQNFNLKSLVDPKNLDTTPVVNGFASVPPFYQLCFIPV
Chain of Melanin-concentrating hormone receptor 1 (Q99705 whole entry): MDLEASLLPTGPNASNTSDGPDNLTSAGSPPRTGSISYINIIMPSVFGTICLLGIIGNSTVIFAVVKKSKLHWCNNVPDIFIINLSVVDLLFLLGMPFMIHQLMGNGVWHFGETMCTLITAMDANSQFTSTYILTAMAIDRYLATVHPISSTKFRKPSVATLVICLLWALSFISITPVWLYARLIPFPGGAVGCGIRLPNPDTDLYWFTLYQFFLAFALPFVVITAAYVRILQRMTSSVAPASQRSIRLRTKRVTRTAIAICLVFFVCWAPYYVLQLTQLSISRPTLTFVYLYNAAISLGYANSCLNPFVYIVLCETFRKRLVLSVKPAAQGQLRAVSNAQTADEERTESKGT
Chain of Glyceraldehyde-3-phosphate dehydrogenase (P04406 whole entry): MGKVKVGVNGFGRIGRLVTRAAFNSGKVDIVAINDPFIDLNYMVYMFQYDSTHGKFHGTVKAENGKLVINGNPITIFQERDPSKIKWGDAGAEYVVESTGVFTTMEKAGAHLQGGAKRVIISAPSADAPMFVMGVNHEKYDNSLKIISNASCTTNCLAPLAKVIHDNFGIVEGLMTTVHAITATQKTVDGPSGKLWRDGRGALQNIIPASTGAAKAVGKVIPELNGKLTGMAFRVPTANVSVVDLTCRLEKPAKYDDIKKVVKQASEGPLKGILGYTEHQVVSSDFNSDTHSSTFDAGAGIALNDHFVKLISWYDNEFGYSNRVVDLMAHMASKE
Chain of C-C chemokine receptor type 6 (P51684 whole entry): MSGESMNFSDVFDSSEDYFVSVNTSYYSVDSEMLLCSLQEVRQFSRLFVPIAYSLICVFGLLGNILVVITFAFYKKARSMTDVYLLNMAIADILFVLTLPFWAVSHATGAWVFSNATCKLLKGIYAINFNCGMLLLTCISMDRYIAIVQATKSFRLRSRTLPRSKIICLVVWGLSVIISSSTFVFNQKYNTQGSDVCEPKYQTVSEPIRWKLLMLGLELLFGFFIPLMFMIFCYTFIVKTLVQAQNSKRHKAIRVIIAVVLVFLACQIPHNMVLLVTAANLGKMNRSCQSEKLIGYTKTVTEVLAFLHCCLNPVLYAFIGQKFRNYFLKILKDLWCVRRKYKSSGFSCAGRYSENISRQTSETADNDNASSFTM
Chain of Heat shock cognate 71 kDa protein (P11142 whole entry): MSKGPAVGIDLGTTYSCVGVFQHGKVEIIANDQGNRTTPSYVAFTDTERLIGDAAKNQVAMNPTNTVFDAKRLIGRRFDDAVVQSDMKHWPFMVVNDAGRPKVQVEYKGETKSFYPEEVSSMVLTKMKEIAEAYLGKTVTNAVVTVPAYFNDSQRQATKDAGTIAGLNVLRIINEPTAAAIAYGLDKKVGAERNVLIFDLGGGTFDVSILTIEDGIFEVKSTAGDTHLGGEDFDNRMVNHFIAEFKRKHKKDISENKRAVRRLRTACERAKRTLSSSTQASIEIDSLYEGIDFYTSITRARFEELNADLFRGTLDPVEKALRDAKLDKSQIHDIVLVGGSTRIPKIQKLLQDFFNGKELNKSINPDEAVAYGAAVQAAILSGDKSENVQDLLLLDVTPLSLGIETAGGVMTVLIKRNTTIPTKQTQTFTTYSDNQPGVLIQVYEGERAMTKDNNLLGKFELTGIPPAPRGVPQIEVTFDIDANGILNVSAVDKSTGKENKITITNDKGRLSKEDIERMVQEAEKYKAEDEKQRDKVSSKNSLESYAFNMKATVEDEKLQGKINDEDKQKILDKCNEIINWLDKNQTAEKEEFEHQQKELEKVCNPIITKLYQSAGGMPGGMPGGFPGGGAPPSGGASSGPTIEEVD
Chain of Neurotensin receptor type 1 (P30989 whole entry): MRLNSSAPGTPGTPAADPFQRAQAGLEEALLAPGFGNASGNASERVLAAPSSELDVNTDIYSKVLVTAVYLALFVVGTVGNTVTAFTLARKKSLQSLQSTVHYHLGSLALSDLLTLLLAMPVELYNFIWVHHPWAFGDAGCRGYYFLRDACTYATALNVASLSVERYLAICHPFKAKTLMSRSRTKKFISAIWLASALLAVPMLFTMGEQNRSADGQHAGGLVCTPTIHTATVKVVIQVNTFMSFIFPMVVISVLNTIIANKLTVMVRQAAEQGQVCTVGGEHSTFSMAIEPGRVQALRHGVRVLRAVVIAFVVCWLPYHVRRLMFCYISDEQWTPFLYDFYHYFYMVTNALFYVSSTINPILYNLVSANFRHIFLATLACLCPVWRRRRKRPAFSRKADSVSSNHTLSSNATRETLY
Chain of X-box-binding protein 1 (P17861 whole entry): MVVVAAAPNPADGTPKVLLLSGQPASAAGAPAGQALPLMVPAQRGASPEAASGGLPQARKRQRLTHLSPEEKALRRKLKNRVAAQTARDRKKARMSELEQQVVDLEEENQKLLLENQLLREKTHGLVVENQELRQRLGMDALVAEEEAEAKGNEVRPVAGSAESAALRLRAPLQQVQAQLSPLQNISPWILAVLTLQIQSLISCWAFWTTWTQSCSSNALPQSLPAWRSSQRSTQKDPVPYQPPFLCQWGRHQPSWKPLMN
Chain of Cystic fibrosis transmembrane conductance regulator/Golgi-associated PDZ and coiled-coil motif-containing protein (P13569 whole entry, other chains not shown): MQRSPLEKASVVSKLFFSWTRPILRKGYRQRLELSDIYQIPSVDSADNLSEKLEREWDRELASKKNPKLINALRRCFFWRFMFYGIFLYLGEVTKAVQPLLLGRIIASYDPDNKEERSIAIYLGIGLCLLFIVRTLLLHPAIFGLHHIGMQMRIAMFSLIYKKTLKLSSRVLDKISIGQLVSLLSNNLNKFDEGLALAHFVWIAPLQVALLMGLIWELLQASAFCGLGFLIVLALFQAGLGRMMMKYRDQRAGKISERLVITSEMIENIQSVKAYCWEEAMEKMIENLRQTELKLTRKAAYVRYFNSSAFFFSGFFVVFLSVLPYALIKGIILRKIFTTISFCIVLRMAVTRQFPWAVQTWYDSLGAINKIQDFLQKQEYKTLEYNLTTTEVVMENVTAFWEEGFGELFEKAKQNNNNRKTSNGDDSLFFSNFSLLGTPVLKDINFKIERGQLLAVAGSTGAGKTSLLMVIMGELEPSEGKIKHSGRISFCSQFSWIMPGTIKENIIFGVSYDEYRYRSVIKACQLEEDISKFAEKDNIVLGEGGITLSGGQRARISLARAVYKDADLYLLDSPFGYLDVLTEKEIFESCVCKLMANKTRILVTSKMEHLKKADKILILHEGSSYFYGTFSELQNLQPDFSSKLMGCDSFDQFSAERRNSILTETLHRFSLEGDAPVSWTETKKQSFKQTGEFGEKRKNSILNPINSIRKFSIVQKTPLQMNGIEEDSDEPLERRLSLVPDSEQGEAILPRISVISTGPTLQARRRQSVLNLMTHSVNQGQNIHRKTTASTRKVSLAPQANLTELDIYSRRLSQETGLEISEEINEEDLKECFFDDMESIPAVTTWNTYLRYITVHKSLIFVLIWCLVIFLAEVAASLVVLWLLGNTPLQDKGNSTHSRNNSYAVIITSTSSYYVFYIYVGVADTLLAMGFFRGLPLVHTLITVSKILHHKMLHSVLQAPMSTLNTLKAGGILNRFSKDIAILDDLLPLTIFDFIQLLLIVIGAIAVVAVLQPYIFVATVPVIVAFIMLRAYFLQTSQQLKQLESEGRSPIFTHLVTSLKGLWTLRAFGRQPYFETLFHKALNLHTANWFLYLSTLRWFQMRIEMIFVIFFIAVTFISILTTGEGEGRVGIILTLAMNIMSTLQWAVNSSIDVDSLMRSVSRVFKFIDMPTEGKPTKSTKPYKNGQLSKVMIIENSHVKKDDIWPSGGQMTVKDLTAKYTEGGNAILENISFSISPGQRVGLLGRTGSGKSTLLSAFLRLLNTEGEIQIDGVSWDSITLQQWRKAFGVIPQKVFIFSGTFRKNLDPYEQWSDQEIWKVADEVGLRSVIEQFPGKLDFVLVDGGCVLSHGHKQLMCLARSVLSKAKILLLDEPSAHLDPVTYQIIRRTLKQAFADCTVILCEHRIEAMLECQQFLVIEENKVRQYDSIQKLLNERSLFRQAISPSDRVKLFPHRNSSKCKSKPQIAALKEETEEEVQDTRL
Chain of Heat shock 70 kDa protein 1A (P0DMV8 whole entry): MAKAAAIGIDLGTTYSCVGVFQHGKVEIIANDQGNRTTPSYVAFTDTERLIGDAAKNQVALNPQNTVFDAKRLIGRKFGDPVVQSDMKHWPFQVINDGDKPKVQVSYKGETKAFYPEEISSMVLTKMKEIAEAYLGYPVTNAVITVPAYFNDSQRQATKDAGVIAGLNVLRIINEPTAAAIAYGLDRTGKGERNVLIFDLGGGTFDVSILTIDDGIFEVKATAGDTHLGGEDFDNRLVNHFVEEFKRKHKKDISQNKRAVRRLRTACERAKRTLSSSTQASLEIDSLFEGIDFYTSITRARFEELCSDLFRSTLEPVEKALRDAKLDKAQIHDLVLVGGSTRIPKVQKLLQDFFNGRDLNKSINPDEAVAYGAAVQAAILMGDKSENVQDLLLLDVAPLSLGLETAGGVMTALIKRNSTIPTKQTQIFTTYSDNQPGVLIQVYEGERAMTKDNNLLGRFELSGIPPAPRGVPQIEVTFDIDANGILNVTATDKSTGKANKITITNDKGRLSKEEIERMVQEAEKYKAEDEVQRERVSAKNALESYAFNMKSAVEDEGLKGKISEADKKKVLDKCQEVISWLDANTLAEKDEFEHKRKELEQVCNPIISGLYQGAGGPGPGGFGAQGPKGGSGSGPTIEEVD

Q: With `Nc1ncnc2c1C(c1ccccc1)c1c(ccc3ccccc13)O2` (stereo unspecified) as the compound, how does the AC50 [1] read?
A: 11.2 µM (active)

Q: What does the source list for `O=C1NCN(c2ccccc2)C12CCN(C[C@H]1COc3ccccc3O1)CC2`?
A: AC50 [2]: 31.6 µM (inconclusive); AC50 [3]: 20 µM (inconclusive); AC50 [4]: 15.8 µM (inconclusive)

Q: For `CSc1nnc(NC(=O)C23CC4CC(CC(C4)C2)C3)s1`, which EC50 [5] is on record?
A: 8.21 µM (active)

Q: What about the AC50 [6] of the same compound?
A: > 380 µM (inactive)

Q: And the EC50 [7]?
A: > 380 µM (inactive)

Q: What does the source list for `Clc1ccccc1-c1nnn(Cc2ccc(-c3nnn[nH]3)cc2)n1`?
A: IC50 [8]: > 43.8 µM (not active); IC50 [9]: > 43.8 µM (not active); EC50 [10]: 4.37 µM (active)

Q: Which CC50 [11] does the source give for `O=C(Nc1nc(-c2ccc(Cl)cc2)cs1)c1ccc(Cl)cc1` here?
A: > 40 µM (active)

Q: For `CNc1nc(Sc2cccc(C(F)(F)F)c2)cc(C(F)(F)F)n1`, which “Absolute IC50 (XBP1)” value [12] is on record?
A: 10 µM

Q: Which results are given for `O=C(Oc1ccc2ccccc2c1)c1ccc2c(c1)C1C=CCC1C(C(=O)O)N2` (stereo unspecified)?
A: IC50 [13]: 2.04 µM (active); IC50 [14]: 76.8 µM (active); IC50 [15]: 95.2 µM (active); IC50 [16]: 43.9 µM (active); IC50 [17]: 20.3 µM (active); IC50 [18]: 24.7 µM (active)

Q: What does the source list for `CC(=O)OC(C)C1C2=C(C(=O)CC1(C)O)C(=O)c1c(ccc(-c3ccc4c(c3O)C(=O)C3=C(C4=O)C(C(C)OC(C)=O)C(C)(O)CC3=O)c1O)C2=O` (stereo unspecified)?
A: IC50 [19]: > 66.6 µM (inactive); IC50 [20]: > 66.6 µM (inactive); CC50 [21]: 19.3 µM (active)
